Measured values reported in PMC10987521, “An all-in-one tetrazine reagent for cysteine-selective labeling and bioorthogonal activable prodrug construction” (Nature Communications, 2024).
Entries after “also recorded” stand apart in the source; their conditions may differ.

Legend:
B16F10 cells = assay: Cellular uptake of RGD-Dox over various time intervals using flow cytometry; format: cell-based, Mouse
Procedure: concentration at the indicated time .
10. In vivo release evaluation of the RGD-FL
Subsequently, the cells were stained […]
laser scanning microscope. […]
μM) for 60 min. […] Blocking studies were performed by
Cells were pre-treated with 18- […]
specific times using a confocal laser scanning microscope.
11. Cell viability assays
After the incubation period, the
Subsequently, the cells were trypsinized and underwent three rinses with PBS.

B16F10 melanoma tumor = assay: In vivo anticancer efficacy, subcutaneous B16F10 melanoma tumor model; parameters: species or system BALB/c nude mice; details: four i.v. courses, 3.67 μmol·kg^−1 (TCO-P4 36.7 μmol·kg^−1), n = 5
Procedure: Tumor-bearing mice were established by subcutaneously injecting a suspension of 5 × 10^5 B16F10 cells per mouse into the front flank of each nude mouse. When tumor volume reached 50−70 mm^3, the animals were randomly divided into five groups (n = 5). The mice were administered different compounds suspended in PBS via the tail vein every 3 days for a total of four times.
The mice underwent four treatment courses on day 0, day 3, day 6, and day 9. Tumor size and body weight were measured every day. Tumor volume was calculated via the following formula: V = 1/2 × (minor axis) × (major axis)[2].
After 12 days, the mice were sacrificed and dissected to obtain tumor tissues and main organs, including heart, liver, spleen, lung, and kidney. Subsequently, all tissues were fixed in a 4% paraformaldehyde solution, routinely paraffin-embedded and sectioned, and then stained with hematoxylin and eosin, as well as using TdT-mediated dUTP nick-end labeling (TUNEL) for subsequent pathological analysis. TUNEL-positive cells appeared fluorescent green, representing the apoptosis of tumor cells (nuclei were fluorescent blue, stained with DAPI).
13. In vivo anticancer efficacy […]
13.2 Calculation of the tumor growth inhibition values (TGI)
Tumor growth inhibition values (TGI) were calculated using the following formula: TGI (%) = (1 − RTVtreatment/
RTVcontrol)*100. RTV refers to relative tumor volume, representing the ratio of the volume at the end of treatment to the
volume at the beginning of treatment. […]

[1] = Critical micelle concentration of peptide conjugates (Nile Red); format: physicochemical; details: PBS (5% DMSO), Nile Red 1.0 μM, room temperature overnight; intersection of tangents
Procedure: The second-order rate constant for the labeling reactions between tetrazine 1 and Cys was determined at 25 °C in PB (30% MeCN, 20 mM, pH 8.0) under second-order conditions using a 6000+ (Quawell) UV-Vis spectrophotometer. The concentrations of cysteine and tetrazine were identical. The specific difference in absorption wavelength (300 nm) between 1 and Cys-1 was measured over time. The second-order rate constant k2 was calculated from the slope of a plot of (1/c – 1/c0) versus time.
5. Competitive labeling reaction with other nucleophilic amino acids
For the competitive labeling experiment, 10 equiv. (2 mM) of N-Fmoc-Lys, N-Fmoc-Arg, Ser, Tyr, and 1.3 equiv. […] The resulting solution was maintained at 25 °C and monitored by LC –MS. […]
Each voTz analogue (1.1 equiv.) was added to a 0.25 mL vial containing solvent. […] The chromatogram peak areas of all relevant Cys -containing species were integrated, and the yiel d was determined using the following equation: Yield (%) = Iproduct/(Istarting + Iproduct + Ioxidation + Iside product) × 100, where Istarting, Iproduct, Ioxidation, and Iside product respectively represent the average ion counts of remaining starting material, product, oxidized starting material and any side product, if present 2. […]
DLS analyses and particle zeta potential values were determined using a Nano ZS ZEN 3690 instrument (Malvern […]

COc1cccc2c1C(=O)c1c(O)c3c(c(O)c1C2=O)C[C@@](O)(C(=O)CO)C[C@@H]3O[C@H]1C[C@H](NC(=O)OCc2nnc(CCSC[C@@H]3NC(=O)[C@@H](Cc4ccc(O)cc4)NC(=O)[C@H](CC(=O)O)NC(=O)CNC(=O)[C@H](CCCNC(=N)N)NC3=O)nn2)[C@H](O)[C@H](C)O1 [RGD-Dox]
cellular uptake of RGD-Dox (flow cytometry) (B16F10 cells; 0.5 h, Data 1): 4477 | cellular uptake of RGD-Dox (flow cytometry) (B16F10 cells; 0.5 h, Data 3): 4327 | cellular uptake of RGD-Dox (flow cytometry) (B16F10 cells; 1 h, Data 3): 6221 | cellular uptake of RGD-Dox (flow cytometry) (B16F10 cells; 2 h, Data 1): 10116 | cellular uptake of RGD-Dox (flow cytometry) (B16F10 cells; 3 h, Data 3): 12247 | cellular uptake of RGD-Dox (flow cytometry) (B16F10 cells; 4 h, Data 3): 12044 | cellular uptake over time (flow cytometry) (B16F10 cells; B16F10, 10 μM, 37 °C, 0.5–6 h, 488/610 nm): rapid increase observed within the first 2 hours, followed by a plateau and saturation thereafter; also recorded: high cellular uptake after 2 h | tumor growth / inhibition in words (B16F10 melanoma tumor): did not exhibit significant tumor inhibition; also recorded: rapid tumor growth | critical micellar concentration (CMC) [1]: 3.31 µM
